Source: the CheMixHub ionic liquid set
Where “and” joins values, the source holds several entries; their conditions need not be identical. Equal values may be shown once. ± gives the uncertainty stated by the source.

Assay: xn = mol fraction of the nth substance listed

CCCC[P+](CC)(CC)CC.N#Cc1ccc[n-]1 + OCCN(CCO)CCO
100 kPa
Conditions	electrical conductivity [S/m]	viscosity [mPa·s]
293.15 K, x1 = 0.005	0.0013 ± 0.0001	–
293.15 K, x1 = 0.012	0.0027 ± 0.0003	–
293.15 K, x1 = 0.029	0.0046 ± 0.0005	980 ± 150
293.15 K, x1 = 0.035	0.005 ± 0.0005	–
293.15 K, x1 = 0.223	–	810 ± 120
293.15 K, x1 = 0.459	0.0205 ± 0.0021	–
298.15 K, x1 = 0.018	–	629 ± 94
303.15 K, x1 = 0.223	–	341 ± 50
303.15 K, x1 = 0.508	–	278 ± 40

CCCCCC[n+]1ccn(C)c1.[Cl-] + OCCO
101 kPa
Conditions	viscosity [mPa·s]
293.15 K, x2 = 0.4977	172.9 ± 5
293.15 K, x2 = 0.6002	83.9 ± 1.9
303.15 K, x2 = 0	4206 ± 320
313.15 K, x1 = 0.0188	10.05 ± 0.21
313.15 K, x2 = 0.6987	21.31 ± 0.46
313.15 K, x2 = 0.8897	11.47 ± 0.24
313.15 K, x2 = 0.9642	10.19 ± 0.22
313.15 K, x2 = 0.9761	10.09 ± 0.21
323.15 K, x1 = 0.0061	7.09 ± 0.15
323.15 K, x2 = 0	783 ± 38
323.15 K, x2 = 0.6002	24.77 ± 0.53
323.15 K, x2 = 0.6987	15.34 ± 0.33
323.15 K, x2 = 0.8998	8.19 ± 0.17
323.15 K, x2 = 0.9642	7.38 ± 0.16
333.15 K, x1 = 0.0061	5.28 ± 0.11
333.15 K, x2 = 0.1526	191.8 ± 5.8
333.15 K, x2 = 0.4977	29.57 ± 0.64
333.15 K, x2 = 0.6987	11.45 ± 0.25
333.15 K, x2 = 0.9532	5.61 ± 0.12

CCCCCC[n+]1ccn(C)c1.[Cl-] + OC[C@H]1O[C@@](CO)(O[C@H]2O[C@H](CO)[C@@H](O)[C@H](O)[C@H]2O)[C@@H](O)[C@@H]1O + O
298.15 K, 101.3 kPa
Conditions	electrical conductivity
x2 = 0, x1 = 4.23e-06	0.00276 ± 3e-05 S/m
x2 = 0, x1 = 7.11e-06	0.00451 ± 5e-05 S/m
x2 = 0, x1 = 1.01e-05	0.00631 ± 6e-05 S/m
x2 = 0, x1 = 1.293e-05	0.008 ± 8e-05 S/m
x2 = 0, x1 = 1.551e-05	0.00953 ± 0.0001 S/m
x2 = 0, x1 = 1.836e-05	0.01121 ± 0.00011 S/m
x2 = 0, x1 = 2.116e-05	0.0129 ± 0.00013 S/m
x2 = 0, x1 = 2.393e-05	0.0145 ± 0.00015 S/m
x2 = 0, x1 = 2.652e-05	0.016 ± 0.00016 S/m
x2 = 0, x1 = 2.919e-05	0.0175 ± 0.00018 S/m
x2 = 0.003591, x1 = 8.04e-06	0.00433 ± 4e-05 S/m
x2 = 0.003591, x1 = 1.174e-05	0.00611 ± 6e-05 S/m
x2 = 0.003591, x1 = 1.526e-05	0.00778 ± 8e-05 S/m
x2 = 0.003591, x1 = 1.864e-05	0.00936 ± 9e-05 S/m
x2 = 0.003591, x1 = 2.202e-05	0.0109 ± 0.00011 S/m
x2 = 0.003591, x1 = 2.53e-05	0.01242 ± 0.00012 S/m
x2 = 0.003591, x1 = 2.853e-05	0.0139 ± 0.00014 S/m
x2 = 0.003591, x1 = 3.177e-05	0.01532 ± 0.00015 S/m
x2 = 0.003591, x1 = 3.49e-05	0.0167 ± 0.00017 S/m
x2 = 0.003591, x1 = 3.779e-05	0.018 ± 0.00018 S/m
x2 = 0.007156, x1 = 6.71e-06	0.00314 ± 3e-05 S/m
x2 = 0.007156, x1 = 1.012e-05	0.00459 ± 5e-05 S/m
x2 = 0.007156, x1 = 1.35e-05	0.00603 ± 6e-05 S/m
x2 = 0.007156, x1 = 1.699e-05	0.00749 ± 8e-05 S/m
x2 = 0.007156, x1 = 2.028e-05	0.00888 ± 9e-05 S/m
x2 = 0.007156, x1 = 2.319e-05	0.0101 ± 0.0001 S/m
x2 = 0.007156, x1 = 2.608e-05	0.01131 ± 0.00011 S/m
x2 = 0.007156, x1 = 2.915e-05	0.0126 ± 0.00013 S/m
x2 = 0.007156, x1 = 3.212e-05	0.0138 ± 0.00014 S/m
x2 = 0.007156, x1 = 3.545e-05	0.01517 ± 0.00015 S/m
x2 = 0.0107, x1 = 7.99e-06	0.00313 ± 3e-05 S/m
x2 = 0.0107, x1 = 1.176e-05	0.00442 ± 4e-05 S/m
x2 = 0.0107, x1 = 1.521e-05	0.00559 ± 6e-05 S/m
x2 = 0.0107, x1 = 1.87e-05	0.00676 ± 7e-05 S/m
x2 = 0.0107, x1 = 2.207e-05	0.00787 ± 8e-05 S/m
x2 = 0.0107, x1 = 2.533e-05	0.00894 ± 9e-05 S/m
x2 = 0.0107, x1 = 2.851e-05	0.00998 ± 0.0001 S/m
x2 = 0.0107, x1 = 3.135e-05	0.0109 ± 0.00011 S/m
x2 = 0.0107, x1 = 3.442e-05	0.0119 ± 0.00012 S/m
x2 = 0.0107, x1 = 3.724e-05	0.0128 ± 0.00013 S/m
x2 = 0.01421, x1 = 1.053e-05	0.00345 ± 4e-05 S/m
x2 = 0.01421, x1 = 1.542e-05	0.00495 ± 5e-05 S/m
x2 = 0.01421, x1 = 2.022e-05	0.00641 ± 6e-05 S/m
x2 = 0.01421, x1 = 2.485e-05	0.00781 ± 8e-05 S/m
x2 = 0.01421, x1 = 2.901e-05	0.00905 ± 9e-05 S/m
x2 = 0.01421, x1 = 3.286e-05	0.0102 ± 0.0001 S/m
x2 = 0.01421, x1 = 3.675e-05	0.01135 ± 0.00011 S/m
x2 = 0.01421, x1 = 4.055e-05	0.0125 ± 0.00013 S/m
x2 = 0.01421, x1 = 4.424e-05	0.0136 ± 0.00014 S/m
x2 = 0.01421, x1 = 4.811e-05	0.0147 ± 0.00015 S/m
x2 = 0.0177, x1 = 9.25e-06	0.00262 ± 3e-05 S/m
x2 = 0.0177, x1 = 1.338e-05	0.0037 ± 4e-05 S/m
x2 = 0.0177, x1 = 1.736e-05	0.00474 ± 5e-05 S/m
x2 = 0.0177, x1 = 2.112e-05	0.00571 ± 6e-05 S/m
x2 = 0.0177, x1 = 2.447e-05	0.00658 ± 7e-05 S/m
x2 = 0.0177, x1 = 2.813e-05	0.00751 ± 8e-05 S/m
x2 = 0.0177, x1 = 3.139e-05	0.00835 ± 8e-05 S/m
x2 = 0.0177, x1 = 3.466e-05	0.00918 ± 9e-05 S/m
x2 = 0.0177, x1 = 3.742e-05	0.00987 ± 0.0001 S/m
x2 = 0.0177, x1 = 4.046e-05	0.0106 ± 0.00011 S/m
x2 = 0.02116, x3 = 0.9787	0.01832 ± 0.00018 S/m
x2 = 0.02116, x3 = 0.9788	0.014 S/m and 0.0154 S/m and 0.0169 S/m
